Entries after “also recorded” stand apart in the source; their conditions may differ.
Experiments:
[1] = Body weight / tolerability in treated Ercc1-/Δ mice; type: in vivo, mouse; conditions: FIG. 11A-B; weight versus time
Description: FIG. 11A-B. Weights as a function of age of (A) male and (B) female Ercc1^−/Δ mice either treated with XJB-5-131 or vehicle (sunflower seed oil) according to the protocol shown in FIG. 7.
(§1) To assess the effectiveness of XJB-5-131 in inhibiting degeneration and/or signs of aging and age-related degenerative diseases, the compound was administered, over a 18-21 week period, to progeroid Ercc1^−/Δ mice, at a dose of 2 mg/kg in sunflower seed oil carrier (to promote solubility) administered intraperitoneally three times per week (FIG. 7). Sunflower seed oil was administered to twin Ercc1^−/Δ mice according to the same schedule as a control. The treated and control mice were monitored twice a week for weight and symptom/sign development.
(§2) To assess the impact of XJB-5-131 at a cellular level, a number of experiments were carried out using mouse embryonic fibroblasts (“MEF”) cells harvested from Ercc1^−/− mouse embryos.

Ercc1^−/Δ mice = assay: Healthspan of progeroid Ercc1-/Δ mice treated with compound vs sibling given vehicle; type: in vivo, mouse
Source text: FIG. 7. Experimental system for determining the impact of a therapeutic compound on the healthspan of Ercc1^−/Δ mice with accelerated aging. Transgenic mice or mutant animals were born from heterozygous crossings. Only litters with two Ercc1^−/Δ mice were enrolled in the study so that siblings could be used to assess the effect of a therapeutic compound, XJB-5-131 vs. vehicle in a pair-wise comparison. Treatments were initiated before the mice became symptomatic. The age at onset of progeroid symptoms were measured biweekly by an investigator blinded to the treatment of the mice.
as §1

[2] = tested on: Ercc1^−/cond; K14-Cre mice; assay: UV-induced photoaging / sunburn of skin, topical cream; type: in vivo, mouse
Description: FIG. 10A-D. (A) Effects of (photo)aging in Ercc1^−/Δ mice either treated with XJB-5-131 (80 μg emulsified in a topical cream) or cream only according to the protocol shown in FIG. 7. The duration of treatment of mice in this figure was daily for five days post-UV irradiation. (B) Compounds as disclosed herein protect skin from photoaging by improving keratin production. Skin of Ercc1^−/cond; K14-Cre mice (missing ERCC1-XPF expression only in the skin) were treated with 20 J/m2 (half of the minimal erythemal dose) five times per week for 10 weeks to induce photoaging of the skin. Immediately after UV exposure, XJB-5-131 was applied (80 μg in 50 μL of cream) using a cotton applicator. Twenty-four hours after the last treatment, mice were euthanized and skin harvested for histopathologic examination. Skin sections were immunostained for keratin (red), DNA to reveal nuclei (blue) and actin (green). (C) Compounds as disclosed herein protect skin from inflammation in response to ultraviolet radiation. Skin of Ercc 1^−/cond; K14-Cre mice (missing ERCC1-XPF expression only in the skin) were treated with 500 J/m2 (12.5× the minimal erythemal dose) to induce erythema. Immediately after UV exposure, XJB-5-131 was applied (80 μg in 50 μL of cream) using a cotton applicator. Twenty-four hours after treatment, mice were euthanized and skin harvested for histopathologic examination. Skin sections were immunostained for keratin (red), DNA to reveal nuclei (blue) and actin (green). The thickness of the epidermal layer (indicated by the white bracket) is less in mice treated with XJB-5-131 than in mice treated with cream alone. (D) Compounds as disclosed herein reduce epidermal atrophy. Old (>24 months) normal mice were shaved and their skin treated with JP4-039 (450 μg in 50 μL of cream) or vehicle (cream) only five times per week for 10 weeks. Twenty-four hours after the last treatment, mice were euthanized and skin harvested for histopathologic examination. Skin sections were stained for DNA to reveal nuclei (blue) and actin (green).
As a measure of the effect of XJB-5-131 on photoaging or sun-induced skin changes, treated and control Ercc1^−/cond. K 14-Cre mice, which are missing ERCC1 only in the skin, were shaved, treated with a depilatory, then irradiated with UV-B light to induce sunburn (500 J/m2, the […] erythemal dose). Subsequently, the mice were treated with XJB-5-131 (80 μg) emulsified in a cream daily for five days.

[3] = tested on: MEF cells harvested from Ercc1^−/− mouse embryos; assay: SA-β galactosidase staining (cellular senescence) in MEF; type: cell-based; conditions: 500 nM in media, ambient oxygen, 48 hours; vs media only
Description: FIG. 12. SA-β galactosidase (a marker of cellular senescence) staining in mouse embryonic fibroblast (“MEF”) cells prepared from Ercc1^−/− mice, where the MEF cells were either treated with XJB-5-131 ([…]) or media alone continuously for 48 hours prior to fixing and staining the cells.
as §2

Ercc1^−/− primary MEF = assay: γH2AX immunostaining of oxidatively stressed primary MEF; type: cell-based, mouse; conditions: 20% oxygen
Description: FIG. 13A-B. γH2AX immunostaining of Ercc1^−/− primary MEF grown at 20% oxygen to induce oxidative stress. Phosphorylated H2AX (γH2AX is a marker of cellular senescence and DNA damage. The MEF cells were either treated with XJB-5-131 (A) or E71-58 (B), fewer cells stained positively for γH2AX.
as §2
Next, the abilities of these two compounds, as well as XJB-5-131 and JP4-039, each at a concentration of 1 μM, were tested for their ability to prevent cellular senescence in cell cultures prepared, and oxidatively stressed, as in the preceding paragraph. Treated as well as untreated cells were, after 48 hours, immunostained for γ-H2AX, a marker of DNA double-strand breaks as well as cellular senescence.

[4] = tested on: MEF cells prepared from Ercc1^−/− mice; assay: Apoptosis in MEF cells; type: cell-based, mouse; conditions: 500 nM in media, 48 hours; vs media alone
Description: FIG. 14. Apoptosis in MEF cells prepared from Ercc1^−/− mice, where the MEF cells were either treated with XJB-5-131 (500 nM dissolved in media) or media alone continuously for 48 hours prior to fixing and staining the cells.
as §2

[5] = tested on: primary MEF from Ercc1^−/− mouse embryos; assay: p16 immunofluorescence (irreversible cellular senescence) in MEF; type: cell-based; conditions: 1 μM, 48 hours, 20% oxygen; vs untreated cells
Description: FIG. 17. Levels of p16, a marker of irreversible cellular senescence, in MEF cells prepared from Ercc1^−/− mice, where the MEF cells were either treated with JP4-039 (10 μM dissolved in media) or media alone for 48 hours prior to fixing and immunostaining of cells.
To test the protective activity of JP4-039, cultures of primary MEF were prepared from Ercc1^−/− mouse embryos and grown under 20% oxygen (ambient air), which creates oxidative stress in these cells that are hypersensitive to the reactive oxygen species. The cells were then either treated with a concentration of 1 μM of XJB-5-131, JP4-039, JED-E71-37 or JED-E71-58, or left untreated, and then after 48 hours the level of p16, a marker of irreversible cellular senescence, was measured by immunofluorescence staining. […] Furthermore, in vivo, JP4-039 reversed epidermal atrophy, by increasing proliferation of keratinocytes (FIG. 10D). Thus JP4-039 was efficacious in vitro and in vivo for reducing/reversing age-related degenerative changes.

R6/2 mice = assay: Rotarod motor co-ordination in Huntington's disease model; type: in vivo, mouse; conditions: 2 mg/kg i.p. three times per week from 5 weeks of age; at 6 and 7 weeks of age; vs untreated mutant animals
Description: FIG. 19. XJB-5-131 preserved motor function in a mouse model of Huntington's disease. Five R6/2 mice, which model Huntington's disease, were treated three times per week with 2 mg/kg XJB-5-131 beginning at 5 weeks of life according to the scheme in FIG. 7. Motor function was assessed weekly by measuring the time animals were able to remain balanced on a rotarod, according to standard methods.
Huntington's disease is a fatal autosomal dominant neurodegenerative disease. The prevalence of Huntington's disease is four to seven in 100 000 and it typically develops in mid-life. The symptoms involve psychiatric, motor and cognitive disturbances, and weight loss. […] Mutant huntingtin forms insoluble aggregates that accumulate in the cytoplasm and nucleus of cells, disrupting neuron function. R6/2 mice express exon 1 of the human huntingtin gene, containing 150 CAG repeats. Consequently, the mice develop neurological symptoms that resemble many of those seen in Huntington's disease, including deficits of motor co-ordination, altered locomotor activity, impaired cognitive performance and seizures. Symptoms begin by week 3-4 and are progressive. […] Motor co-ordination was measured using a rotarod, after the mice were conditioned to the apparatus.

Solubility (statement) = type: physicochemical
Source text: Compounds as set forth herein may be administered in a suitable pharmaceutical carrier (e.g. sterile water, normal saline, phosphate buffered saline, etc.). Not by way of limitation, inhibitors may be administered as a solution, as a suspension, in solid form, in a sustained release formulation, in a topical cream formulation, etc. In particular non-limiting examples, an inhibitor may be incorporated into a microcapsule, nanoparticle or liposome.

[6] = acute or chronic photoaging, 80 μg in 50 μL of cream

SMILES: CC1(C)CCCC(C)(C)N1[O] [TEMPO, 2,2,6,6-tetramethylpiperidine-N-oxyl, reference compound]
- weight loss as a result of treatment [1]: cause weight loss

SMILES: CC(C)C[C@@H](/C=C/[C@H](Cc1ccccc1)C(=O)N1CCC[C@H]1C(=O)N[C@H](C(=O)N[C@@H](CCCNC(=O)OCc1ccccc1)C(=O)NC1CC(C)(C)N([O])C(C)(C)C1)C(C)C)NC(=O)OC(C)(C)C [XJB-5-131]
- overall aging score (relative age at onset of progeroid symptoms vs sibling on oil) (Ercc1^−/Δ mice; 2 mg/kg i.p. in sunflower seed oil, three times per week, 18-21 weeks): significantly improved
- onset of progeroid symptoms and aging pathologies (Ercc1^−/Δ mice; 2 mg/kg i.p. three times per week): delayed the onset
- symptoms of accelerated aging marked with asterisk (dystonia, ataxia, muscle wasting, decreased spontaneous activity or lethargy), age at onset (Ercc1^−/Δ mice; FIG. 8, vs vehicle only): significantly delayed
- neurodegeneration and muscle wasting in twin mice (Ercc1^−/Δ mice; FIG. 9A, three times per week from 5 weeks of age, vs sibling on vehicle): reduced and less
- general appearance of twin mice (Ercc1^−/Δ mice; FIG. 9A, vs sibling on vehicle): improved
- glycosaminoglycan in intervertebral discs, more relative to control mice (Ercc1^−/Δ mice; FIG. 9B, vs sunflower seed oil): approximately 30%
- neurodegeneration in brain/cerebellum (GFAP immunostaining) (Ercc1^−/Δ mice; FIG. 9C, vs siblings on vehicle only): significantly reduced; also recorded: Decreased
- insulin-producing β-islet cells in pancreas (Ercc1^−/Δ mice; FIG. 9D, H&E sections): preserved; also recorded: Preservation
- thickness of the epidermal layer after UV ([2]; 500 J/m2, 80 μg in 50 μL of cream, 24 h, vs cream alone): less
- skin appearance after UV-B sunburn ([2]; 500 J/m2 UV-B, 80 μg in cream daily for five days, vs cream only): much more smooth and healthy
- inflammation of skin after UV [2, 6]: reduced
- keratin in skin sections (immunofluorescence) [2, 6]: improved
- amount of SA-β galactosidase staining [3]: notably less
- γ-H2AX immunostaining (prevention of cellular senescence) (Ercc1^−/− primary MEF; 1 μM, 48 hours, vs untreated): less effective
- γH2AX foci / cells staining positively for γH2AX (Ercc1^−/− primary MEF; FIG. 13, concentration not stated): reduce; also recorded: fewer
- amount of apoptosis [4]: did not reduce
- level of p16 [5]: less effective
- motor co-ordination (time on rotarod) (R6/2 mice): significantly better
- solubility (Solubility (statement)): sparingly soluble
- weight loss as a result of treatment [1]: did not cause weight loss

Reference: patent US8937086B2, “Compounds for the treatment of pathologies associated with aging and degenerative disorders” (University of Pittsburgh—Of the Commonwealth System of …, priority 2008, dated 2015)
